Assay results from patent US9260429B2, “Pyrido[3,4-B]indoles and methods of use” (Medivation Technologies, Inc., priority 2008, dated 2016).
Read-outs that look alike come from different tables or passages of the source.

Assays:
[1] = molecular target: T1, human recombinant histamine H2 receptor (Homo sapiens, UniProt P25021); assay: Histamine H2 radioligand binding ([125I]Aminopotentidine)
T1 construct: expressed in transfected cells; host or cells: CHO-K1 cells
In short: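 Membranes of CHO-K1 cells expressing human H2 receptor incubated with 0.1 nM [125I]aminopotentidine, 120 min, 25 °C, 50 mM phosphate pH 7.4; nonspecific binding defined with 3 μM tiotidine.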

[2] = molecular target: T2, human recombinant serotonin (5-Hydroxytryptamine) 5-HT2A receptor (Homo sapiens, UniProt P28223); assay: Serotonin 5-HT2A radioligand binding ([3H]Ketanserin)
T2 construct: expressed in transfected cells; host or cells: CHO-K1 cells
T2 sequence (P28223 whole entry): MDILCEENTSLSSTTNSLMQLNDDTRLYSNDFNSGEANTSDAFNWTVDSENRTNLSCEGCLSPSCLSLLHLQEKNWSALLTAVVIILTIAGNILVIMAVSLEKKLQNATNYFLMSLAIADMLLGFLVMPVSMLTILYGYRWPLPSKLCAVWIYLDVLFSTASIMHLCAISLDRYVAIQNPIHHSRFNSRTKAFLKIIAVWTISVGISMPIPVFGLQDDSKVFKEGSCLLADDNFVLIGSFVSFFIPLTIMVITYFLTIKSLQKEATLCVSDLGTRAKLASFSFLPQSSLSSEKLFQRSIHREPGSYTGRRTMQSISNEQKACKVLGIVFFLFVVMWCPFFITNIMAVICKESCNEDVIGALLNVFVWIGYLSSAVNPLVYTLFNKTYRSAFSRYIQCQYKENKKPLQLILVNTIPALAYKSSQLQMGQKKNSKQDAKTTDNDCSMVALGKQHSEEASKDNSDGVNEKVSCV
In short: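 Membranes from CHO-K1 cells expressing the receptor, in 50 mM Tris-HCl pH 7.4, incubated 60 min at 25° C with 0.5 nM [3H]Ketanserin; 1 μM Mianserin defines non-specific binding. Filtration and counting; values are % inhibition of specific binding at 1 μM or lower, 1% DMSO.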

[3] = molecular target: T3, human recombinant serotonin (5-Hydroxytryptamine) 5-HT6 receptor (Homo sapiens, UniProt P50406); assay: Serotonin 5-HT6 radioligand binding ([3H]LSD)
T3 construct: expressed in transfected cells; host or cells: human HeLa cells
T3 sequence (P50406 whole entry): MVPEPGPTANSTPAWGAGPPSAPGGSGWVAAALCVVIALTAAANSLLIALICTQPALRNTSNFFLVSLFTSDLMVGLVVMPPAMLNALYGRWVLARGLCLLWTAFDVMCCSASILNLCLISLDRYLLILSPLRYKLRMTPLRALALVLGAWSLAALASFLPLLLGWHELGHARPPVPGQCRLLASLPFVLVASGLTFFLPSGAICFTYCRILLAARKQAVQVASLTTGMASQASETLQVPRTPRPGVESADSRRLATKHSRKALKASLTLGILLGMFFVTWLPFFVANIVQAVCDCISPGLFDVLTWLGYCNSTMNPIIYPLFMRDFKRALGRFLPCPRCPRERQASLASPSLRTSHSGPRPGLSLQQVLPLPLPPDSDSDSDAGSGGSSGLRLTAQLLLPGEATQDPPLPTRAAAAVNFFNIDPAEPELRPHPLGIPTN
In short: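 Human 5-HT6 receptor expressed in HeLa cells, in Tris-HCl pH 7.4 with 150 mM NaCl, ascorbic acid and BSA. Compounds at 1 μM or lower (1% DMSO) incubated 120 min at 37° C with 1.5 nM [3H]LSD. Non-specific binding defined with serotonin; filter counting gives % inhibition of specific binding.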

[4] = molecular target: T4, human recombinant adrenergic α2A receptor (Homo sapiens, UniProt P08913); assay: Adrenergic α2A radioligand binding ([3H]MK-912)
T4 construct: expressed in transfected cells; host or cells: insect Sf9 cells
T4 sequence (P08913 1-465): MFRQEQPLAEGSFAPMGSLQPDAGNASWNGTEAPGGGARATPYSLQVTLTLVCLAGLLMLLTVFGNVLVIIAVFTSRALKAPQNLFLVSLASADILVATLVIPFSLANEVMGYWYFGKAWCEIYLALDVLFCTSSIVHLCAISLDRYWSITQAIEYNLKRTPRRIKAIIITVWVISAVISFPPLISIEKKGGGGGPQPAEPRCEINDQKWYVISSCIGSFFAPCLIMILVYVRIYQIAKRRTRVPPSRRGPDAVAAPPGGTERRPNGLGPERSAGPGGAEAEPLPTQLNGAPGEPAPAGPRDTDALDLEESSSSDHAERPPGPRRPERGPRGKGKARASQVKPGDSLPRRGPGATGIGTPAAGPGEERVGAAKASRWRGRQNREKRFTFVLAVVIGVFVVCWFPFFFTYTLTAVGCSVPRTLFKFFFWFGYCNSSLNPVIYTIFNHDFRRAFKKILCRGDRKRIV
Method: To evaluate in radioligand binding assays the activity of compounds of the invention, human recombinant adrenergic α2A receptor expressed in insect Sf9 cells (Uhlen S et al. J Pharmacol Exp Ther. 271:1558, 1994) in a modified Tris-HCl buffer (50 mM Tris-HCl, pH 7.4, 12.5 mM MgCl2, 2 mM EDTA) was used. Compounds of invention were incubated with 1 nM [^3H]MK-912 for 60 minutes at 25° C. MK912 is (2S-trans)-1,3,4,5′,6,6′,7,12b-octahydro-1′,3′-dimethyl-spiro[2H-benzofuro[2,3-a]quinolizine-2,4′(1′H)-pyrimidin]-2′(3′H)-one hydrochloride Non-specific binding was estimated in the presence of 10 μM WB-4101 (2-(2,6-Dimethoxyphenoxyethyl)aminomethyl-1,4-benzodioxane hydrochloride). Receptor proteins were filtered and washed, the filters were then counted to determine [^3H]MK-912 specifically bound. Compounds were screened at 1 μM or lower, using 1% DMSO as vehicle. Biochemical assay results are presented as the percent inhibition of specific binding in Table 4.

[5] = 1 μM, inhibition of specific [125I]Aminopotentidine binding, read-out: Binding data (Percentage Inhibition) Histamine Binding (1 μM) H2
[6] = 1 h, read-out: Percent Inhibition of ligand binding Serotonin (1 μM ligand concentration) 5-HT2A
[7] = 2 h, read-out: Percent Inhibition of ligand binding Serotonin (1 μM ligand concentration) 5-HT6
[8] = 1 h, read-out: Percent Inhibition of ligand binding Adrenergic (1 μM ligand conc.) α2A

T1 sequence (P25021 whole entry): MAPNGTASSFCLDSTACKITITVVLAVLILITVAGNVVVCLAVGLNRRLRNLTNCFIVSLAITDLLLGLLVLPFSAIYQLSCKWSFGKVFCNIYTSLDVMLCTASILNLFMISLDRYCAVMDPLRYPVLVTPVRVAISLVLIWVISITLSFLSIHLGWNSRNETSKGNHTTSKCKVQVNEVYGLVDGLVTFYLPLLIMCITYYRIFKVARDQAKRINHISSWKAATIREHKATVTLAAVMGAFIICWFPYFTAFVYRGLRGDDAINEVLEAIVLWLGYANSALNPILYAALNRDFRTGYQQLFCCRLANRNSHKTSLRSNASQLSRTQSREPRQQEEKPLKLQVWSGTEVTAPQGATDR

| Compound | inhibition at 1 µM [1, 5] | inhibition at 1 µM [2, 6] | inhibition at 1 µM [3, 7] | inhibition at 1 µM [4, 8] | further results |
| --- | --- | --- | --- | --- | --- |
| C/C(=C\n1c2c(c3cc(Cl)ccc31)CCN(C)C2)c1ccc(Cl)cc1 [Compound 98, 6-chloro-9-(2-(4-chlorophenyl)prop-1-enyl)-2-methyl-2,3,4,9-tetrahydro-1H-pyrido[3,4-b]indole] | 94% | 98% | 79% | 74% | – |
| C/C(=C/n1c2c(c3cc(C)ccc31)CCN(C)C2C)c1ccccc1F (centres unmarked) [Compound 165] | 22% | 85% | 46% | 86% | – |
| CN1CCc2c(n(CC(=O)N(C)C3CCCCC3)c3ccc(Cl)cc23)C1 [Compound 18, 2-(6-chloro-1,2,3,4-tetrahydro-2-methylpyrido[3,4-b]indol-9-yl)-N-cyclohexyl-N-methylacetamide] | 7% | -1% | 1% | 4% | – |
| Cc1ccc2c(c1)c1c(n2CC(O)c2ccccc2)CN(C)CC1 (centres unmarked) [Compound 67] | 8% | 77% | 51% | 85% | – |
| C/C(=C\n1c2c(c3cc(Cl)ccc31)CCN(C)C2)c1ccc(F)cc1 [Compound 90, (E)-6-chloro-9-(2-(4-fluorophenyl)prop-1-enyl)-2-methyl-2,3,4,9-tetrahydro-1H-pyrido[3,4-b]indole] | 64% | 97% | 98% | 88% | inhibition at 1 µM ([1]; compound concentration 1 μM, read-out: Percentage inhibition of ligand binding to H2 receptor): 64%; inhibition at 0.003 µM ([2]; compound concentration 3 nM, read-out: Percentage inhibition of ligand binding to 5-HT2A receptor): 1%; inhibition at 0.01 µM ([2]; compound concentration 10 nM, read-out: Percentage inhibition of ligand binding to 5-HT2A receptor): 9%; inhibition at 0.03 µM ([2]; compound concentration 0.03 μM, read-out: Percentage inhibition of ligand binding to 5-HT2A receptor): 31%; inhibition at 0.1 µM ([2]; compound concentration 0.1 μM, read-out: Percentage inhibition of ligand binding to 5-HT2A receptor): 64%; inhibition at 0.3 µM ([2]; compound concentration 0.3 μM, read-out: Percentage inhibition of ligand binding to 5-HT2A receptor): 87%; inhibition at 1 µM ([2]; compound concentration 1 μM, read-out: Percentage inhibition of ligand binding to 5-HT2A receptor): 97%; inhibition at 0.003 µM ([3]; compound concentration 3 nM, read-out: Percentage inhibition of ligand binding to 5-HT6 receptor): 16%; inhibition at 0.01 µM ([3]; compound concentration 10 nM, read-out: Percentage inhibition of ligand binding to 5-HT6 receptor): 32%; inhibition at 0.03 µM ([3]; compound concentration 0.03 μM, read-out: Percentage inhibition of ligand binding to 5-HT6 receptor): 58%; inhibition at 0.1 µM ([3]; compound concentration 0.1 μM, read-out: Percentage inhibition of ligand binding to 5-HT6 receptor): 81%; inhibition at 0.3 µM ([3]; compound concentration 0.3 μM, read-out: Percentage inhibition of ligand binding to 5-HT6 receptor): 94%; inhibition at 1 µM ([3]; compound concentration 1 μM, read-out: Percentage inhibition of ligand binding to 5-HT6 receptor): 98%; inhibition at 1 µM ([4]; compound concentration 1 μM, read-out: Percentage inhibition of ligand binding to Adrenergic α2A receptor): 88% |
| CCC1c2c(c3cc(Cl)ccc3n2C#Cc2ccc(F)cc2)CCN1C (centres unmarked) [Compound 129] | 26% | 85% | 22% | 75% | – |
| Cc1ccc2c(c1)c1c(n2CCC2CCCCC2)CN(C)CC1 [Compound 2, 9-(2-cyclohexylethyl)-2,3,4,9-tetrahydro-2,6-dimethyl-1H-pyrido[3,4-b]indole] | 71% | – | 58% | 81% | – |
| CN1CCc2c(n(CCc3ccc(F)cc3)c3ccc(Cl)cc23)C1 [Compound 3, 9-(4-fluorophenethyl)-6-chloro-2,3,4,9-tetrahydro-2-methyl-1H-pyrido[3,4-b]indole] | 51% | – | 100% | 99% | – |
| CC1CCN(C(=O)Cn2c3c(c4cc(Cl)ccc42)CCN(C)C3)CC1 [Compound 38, 2-(6-chloro-1,2,3,4-tetrahydro-2-methylpyrido[3,4-b]indol-9-yl)-1-(4-methylpiperidin-1-vyl)ethanone] | 3% | – | -2% | 15% | – |
| Cc1ccc2c(c1)c1c(n2CCc2ccc(C)nc2)CN(C)CC1 [Compound 1, 2,3,4,9-tetrahydro-2,6-dimethyl-9-(2-(6-methylpyridin-3-yl)ethyl)-1H-pyrido[3,4-b]indole] | 5% | – | 5% | 74% | – |
| C#CCn1c2c(c3cc(Cl)ccc31)CCN(C)C2 [Compound 125, 6-chloro-2,3,4,9-tetrahydro-2-methyl-9-(prop-2-yn1)-1H-pyrido[3,4-b]indole] | 9% | – | 66% | 89% | – |
